The source of these data is PMC8623215, “Zhaoshumycins A and B, Two Unprecedented Antimycin-Type Depsipeptides Produced by the Marine-Derived Streptomyces sp. ITBB-ZKa6” (Marine Drugs, 2021).

The test system of the series is MCF7 human breast cancer cell line. Put plainly: Cytotoxic activity test, MTT method, MCF7 cells. To be noted: for inhibition rate: compound at 50 µM, dissolved in DMSO. The format is cell-based. The source says: Dimethyl sulfoxide (DMSO) was used to dissolve the tested compounds.

Substance neoantimycin D [Compound 5] yielded an inhibition rate of 91.08%. The “cytotoxic activity (in words)” value (preliminary in vitro test) is “weak cytotoxic activity”.
In turn, neoantimycin E [Compound 6] registered an inhibition rate of 90.53%.
